Data reported in patent publication US7435751B2, “7-Fluoro-1,3-dihydro-indol-2-one oxazolidinones as antibacterial agents” (priority 2005, dated 2008).
Converted amounts (≈) assume the structure as drawn.

What was measured:
S. aureus UC-76 SA-1 = assay: In vitro antibacterial activity against S. aureus UC-76 SA-1; assay type: cell-based; details: Staphylococcus aureus, UC76; strain UC-76 SA-1
From the text: (§1) The in vitro antibacterial activity of the compounds of the present invention may be assessed by following procedures recommended in (1) National Committee for Clinical Laboratory Standards (January 2003), Methods for dilution antimicrobial tests for bacteria that grow aerobically, Approved Standard (6th ed), M7-A6, NCCLS, Wayne, Pa.; (2) National Committee for Clinical Laboratory Standards (March 2001), Methods for antimicrobial susceptibility testing of anaerobic bacteria, Approved Standard (5th ed), M11-A4, NCCLS, Wayne, Pa.; (3) National Committee for Clinical Laboratory Standards (Jan. 2003), MIC testing supplemental tables, M100-S13 (for use with M7-A6), NCCLS, Wayne, Pa.; and (4) Murray P R, Baron E J, Jorgensen J H, et al. Manual of Clinical Microbiology (8th ed) Washington, D.C.: American Society for Microbiology Press, 2003. The antibacterial activity can be presented in the form of MIC value. The MIC value is the lowest concentration of drug which prevented macroscopically visible growth under the conditions of the test.

S. pneumoniae SV1 SP-3 = assay: In vitro antibacterial activity against S. pneumoniae SV1 SP-3; assay type: cell-based; details: Streptococcus pneumoniae, SV1SP3; strain SV1 SP-3
From the text: as §1

E. faecalis MGH-2 EF 1-1 = assay: In vitro antibacterial activity against E. faecalis MGH-2 EF 1-1; assay type: cell-based; details: Enterococcus faecalis, MGH2EF11; strain MGH-2 EF 1-1
From the text: as §1

MAO-B = target: T1, MAO-B (Homo sapiens, UniProt P27338); assay: Monoamine oxidase B inhibition (conversion of MAO substrate to dihydropyridinium metabolite); assay type: biochemical; details: substrate at Km 43 μM; MAO-B 0.008 mg/mL
T1 sequence (P27338 1-520): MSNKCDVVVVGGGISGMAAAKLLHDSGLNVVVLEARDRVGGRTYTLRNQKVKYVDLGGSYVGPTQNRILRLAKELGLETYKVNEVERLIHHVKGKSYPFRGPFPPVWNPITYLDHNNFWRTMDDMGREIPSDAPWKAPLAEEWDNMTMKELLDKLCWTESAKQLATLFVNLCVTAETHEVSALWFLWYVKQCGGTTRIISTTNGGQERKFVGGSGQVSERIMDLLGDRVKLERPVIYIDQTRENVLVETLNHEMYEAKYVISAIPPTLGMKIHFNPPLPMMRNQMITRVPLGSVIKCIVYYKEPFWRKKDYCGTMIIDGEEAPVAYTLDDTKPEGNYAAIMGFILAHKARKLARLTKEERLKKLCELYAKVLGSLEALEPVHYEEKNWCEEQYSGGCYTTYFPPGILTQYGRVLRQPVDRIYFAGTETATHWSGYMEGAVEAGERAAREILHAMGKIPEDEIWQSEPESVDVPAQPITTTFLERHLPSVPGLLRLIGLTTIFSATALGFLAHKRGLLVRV
Procedure: (§2) Following procedure may assess monoamine oxidase inhibition activity of the compounds of the present invention:
(§3) MAO-A and B inhibition were analyzed by measuring the inhibition of conversion of an MAO substrate, 1-methyl-4-(1-methyl-2-pyrryl)-1,2,3,6-tetrahydropyridine, to its dihydropyridinium metabolite (λ=421 nm). The substrate concentration was equal to the Km (64 μM for MAO-A and 43 μM for MAO-B). The MAO-A concentration was 0.01 mg/mL, and the MAO-B concentration was 0.008 mg/mL. Each inhibitor was tested at seven concentrations. Percent inhibition at each concentration was established relative to the uninhibited control rate, and the IC50 and Ki values were calculated.

E. faecalis (VREF) = assay: In vitro antibacterial activity, MIC90 against E. faecalis (VREF); assay type: cell-based; details: Enterococcus faecalis
From the text: as §1

E. faecium (VREF) = assay: In vitro antibacterial activity, MIC90 against E. faecium (VREF); assay type: cell-based; details: Enterococcus faecium
From the text: as §1

MAO-A = target: T2, MAO-A (Homo sapiens, UniProt P21397); assay: Monoamine oxidase A inhibition (conversion of MAO substrate to dihydropyridinium metabolite); assay type: biochemical; details: substrate at Km 64 μM; MAO-A 0.01 mg/mL
T2 sequence (P21397 1-527): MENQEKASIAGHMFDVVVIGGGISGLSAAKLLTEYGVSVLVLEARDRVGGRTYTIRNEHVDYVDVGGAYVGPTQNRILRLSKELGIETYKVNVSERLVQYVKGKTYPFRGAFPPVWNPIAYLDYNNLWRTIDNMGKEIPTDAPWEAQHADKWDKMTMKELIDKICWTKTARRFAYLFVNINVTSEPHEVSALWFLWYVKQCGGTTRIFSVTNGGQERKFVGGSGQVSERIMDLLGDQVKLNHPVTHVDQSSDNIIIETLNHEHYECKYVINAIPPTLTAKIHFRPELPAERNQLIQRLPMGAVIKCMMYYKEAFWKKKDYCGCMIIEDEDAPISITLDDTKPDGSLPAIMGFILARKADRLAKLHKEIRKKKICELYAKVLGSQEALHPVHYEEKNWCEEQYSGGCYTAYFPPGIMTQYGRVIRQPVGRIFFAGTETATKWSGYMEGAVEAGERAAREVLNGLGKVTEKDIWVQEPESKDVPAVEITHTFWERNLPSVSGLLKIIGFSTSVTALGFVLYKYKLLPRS
Procedure: as §2, §3

S. pneumoniae (LRSA) = assay: In vitro antibacterial activity, MIC90 against S. pneumoniae (LRSA); assay type: cell-based; details: Streptococcus pneumoniae
From the text: as §1

S. aureus (LORSA) = assay: In vitro antibacterial activity, MIC90 against S. aureus (LORSA); assay type: cell-based; details: Staphylococcus aureus
From the text: as §1

Compound | MIC90 (S. aureus UC-76 SA-1) [µg/mL] | MIC90 (S. pneumoniae SV1 SP-3) [µg/mL] | MIC90 (E. faecalis MGH-2 EF 1-1) [µg/mL] | Ki (MAO-B) [µM] | MIC90 (E. faecalis (VREF)) [µg/mL] | MIC90 (E. faecium (VREF)) [µg/mL] | Ki (MAO-A) [µM] | MIC90 (S. pneumoniae (LRSA)) [µg/mL] | MIC90 (S. aureus (LORSA)) [µg/mL]
COC(=O)NC[C@H]1CN(c2cc(F)c3c(c2)CC(=O)N3CCF)C(=O)O1 [Example 4, (S)-{3-[7-fluoro-1-(2-fluoro-ethyl)-2-oxo-2,3-dihydro-1H-indol-5-yl]-2-oxo-oxazolidin-5-ylmethyl}-carbamic acid methyl ester] | 4 (≈ 10.8 µM) | 4 (≈ 10.8 µM) | 2 (≈ 5.42 µM) | – | – | – | – | – | –
COC(=O)NC[C@H]1CN(c2cc(F)c3c(c2)CC(=O)N3C)C(=O)O1 [Example 1, (5S)-[3-(7-fluoro-1-methyl-2-oxo-2,3-dihydro-1H-indol-5-yl)-2-oxo-oxazolidin-5-ylmethyl]-carbamic acid methyl ester] | – | – | – | 52.6 | 4 (≈ 11.9 µM) | 4 (≈ 11.9 µM) | 722 | 4 (≈ 11.9 µM) | 4 (≈ 11.9 µM)
COC(=O)NC[C@H]1CN(c2cc(F)c3c(c2)CC(=O)N3C(C)C)C(=O)O1 [Example 2, (5S)-[3-(7-fluoro-1-isopropyl-2-oxo-2,3-dihydro-1H-indol-5-yl)-2-oxo-oxazolidin-5-ylmethyl]-carbamic acid methyl ester] | – | – | – | 3.17 | 2 (≈ 5.47 µM) | 2 (≈ 5.47 µM) | > 500 | 2 (≈ 5.47 µM) | 4 (≈ 10.9 µM)
CCCN1C(=O)Cc2cc(N3C[C@H](CNC(=O)OC)OC3=O)cc(F)c21 [Example 5, (S)-[3-(7-fluoro-2-oxo-1-propyl-2,3-dihydro-1H-indol-5-yl)-2-oxo-oxazolidin-5-ylmethyl]-carbamic acid methyl ester] | 8 (≈ 21.9 µM) | 4 (≈ 10.9 µM) | 8 (≈ 21.9 µM) | – | – | – | – | – | –

Continued, values first:

MIC90 (S. aureus UC-76 SA-1) [µg/mL] | MIC90 (S. pneumoniae SV1 SP-3) [µg/mL] | MIC90 (E. faecalis MGH-2 EF 1-1) [µg/mL] | Ki (MAO-B) [µM] | MIC90 (E. faecalis (VREF)) [µg/mL] | MIC90 (E. faecium (VREF)) [µg/mL] | Ki (MAO-A) [µM] | MIC90 (S. pneumoniae (LRSA)) [µg/mL] | MIC90 (S. aureus (LORSA)) [µg/mL] | Compound
4 (≈ 11.4 µM) | 4 (≈ 11.4 µM) | 2 (≈ 5.69 µM) | – | – | – | – | – | – | CCN1C(=O)Cc2cc(N3C[C@H](CNC(=O)OC)OC3=O)cc(F)c21 [Example 3, (S)-[3-(1-ethyl-7-fluoro-2-oxo-2,3-dihydro-1H-indol-5-yl)-2-oxo-oxazolidin-5-ylmethyl]-carbamic acid methyl ester]
8 (≈ 22 µM) | 8 (≈ 22 µM) | 8 (≈ 22 µM) | – | – | – | – | – | – | COC(=O)NC[C@H]1CN(c2cc(F)c3c(c2)CC(=O)N3C2CC2)C(=O)O1 [Example 6, (S)-[3-(1-cyclopropyl-7-fluoro-2-oxo-2,3-dihydro-1H-indol-5-yl)-2-oxo-oxazolidin-5-ylmethyl]-carbamic acid methyl ester]
4 (≈ 10.6 µM) | 4 (≈ 10.6 µM) | 4 (≈ 10.6 µM) | – | – | – | – | – | – | COC(=O)NC[C@H]1CN(c2cc(F)c3c(c2)CC(=O)N3CC2CC2)C(=O)O1 [Example 7, (S)-[3-(1-cyclopropylmethyl-7-fluoro-2-oxo-2,3-dihydro-1H-indol-5-yl)-2-oxo-oxazolidin-5-ylmethyl]-carbamic acid methyl ester]
